Results: patent publication US20060041016A1, “Composition and method for the treatment of psoriasis” (priority 2004, published 2006)

Assays:
[1] = tested on: Normal human epithelial keratinocytes; assay: Antiproliferative effect on cultured keratinocytes, crystal violet method, absorbance at 595 nm; type: cell-based; settings: for antiproliferative potency relative to PGA2 and the other analogues: normal human epithelial keratinocytes, 7 days incubation, FIG. 1-4
Experimental: Normal human epithelial keratinocytes, and keratinocyte growth medium (KGM^R-2 Bulletkit; CC-3107 from Clonetics, USA) were purchased from Göteborgs Termometerfabrik AB (Västra Frölunda, Sweden). The cells were cultured at 37° C. in 5% CO2 humidified air according to standard procedure. The cells used for the experiments were at the third passage. 48-well plates were used for the cultures. In each well about 3000 cells were seeded. For each concentration of prostaglandin analogues two wells were used. After completion of the incubation, the wells were washed twice with phosphate buffered saline (PBS). Thereafter the cells were fixed with 1% glutaraldehyde in PBS at +4° C. for 15 min. The wells were then again washed twice with PBS, and thereafter treated with 0.1% crystal violet solution (500 μl/well). The wells were then rinsed with distilled water for 15 sec, three times, and were left to dry completely. The absorbed colour was solubilized in 500 μl 2.5% sodiumdodecyl-sulphate (SDS) in distilled water for 3 hours. The absorbance of the fluid in the wells was determined using a microtiter well spectrophotometer (Multiscan RC V1.3-0) at 595 nm. The experiments were performed in duplicate (two wells). The incubation time was 7 days, and the incubation medium was changed after 3-4 days. The prostaglandin analogues were dissolved directly in the incubation medium. After appropriate incubation the density of cells in the wells was determined using the crystal violet method described above.

[2] = tested on: eye; settings: tested in the form of an isopropyl ester prodrug; cited from earlier work
[3] = tested on: human eye; assay: Hyperemia/irritation test using the human eye as a model; type: in vivo; settings: for Difference in irritation PGA2 - JB991 acid / Difference in hyperemia PGA2 - JB991 acid: topical on eye, n = 3; for Difference in irritation PGA2 - JB991 acid: categorical scale, Mean ± SEM; for Difference in hyperemia PGA2 - JB991 acid: scale 0-3, Mean ± SEM; for hyperemia and ocular irritation or pain after application (in words): human eye, topical, 3 individuals, about 10^−4 M and about 3×10^−4 M
Experimental: PGA2 and 17-phenyl-18,19,20-trinor-PGA2, synthesized as described above, were formulated in vehicles suitable for hyperemia/irritation tests using the human eye as a model. The superficial redness of the eyes was documented by colour photographs before, and 15, 30, 60 and 120 min after application of the test substances. One eye was treated with the prostaglandin analogue and the other eye with the vehicle only. Ocular irritation or pain was recorded at the same time points. The two test substances at a concentration of 26 μg/ml (about 10^−4 M) were tested in the same eye of three healthy individuals a few days apart.
About a week later, a higher concentration of each compound, 84 μg/ml of PGA2 and 96 μg/ml of 17-phenyl-18,19,20-trinor-PGA2 (both concentrations corresponding to about 3×10^−4 M) was again tested a few days apart in the same eyes of the same individuals. The concentrations used are relevant since for the treatment of psoriasis the drugs have to be used at approximately this concentration range. The hyperemia was evaluated on a scale from 0 (no hyperemia) to 3 (maximum hyperemia) using half steps. A similar categorical scale was used for the ocular irritation or pain. […]

[4] = tested on: BAX gene expression (BAX-protein) in human keratinocytes; assay: Expression of the pro-apoptotic BAX gene by immunocytochemistry; type: cell-based
Experimental: The cells, cultivated essentially as described above, were trypsinized, the solution centrifuged, and the pellet resuspended and transferred to a microscopic slide with cover slip. Immunocytochemistry was performed according to standard technique. BAX (N-20)-affinity purified rabbit polyclonal antibodies were purchased from Santa Cruz Biotechnology Inc. (Santa Cruz, Calif.), and used at a dilution of 1:200. Secondary goat-antirabbit antibodies conjugated to horseradish peroxidase (Dako Envision+TM) obtained from Dako (Carpinteria, Calif., USA) were used for detecting the primary antibodies. After appropriate rinsing the preparations were incubated with […] as chromogenic substrate for the horseradish peroxidase for 10 min at room temperature. […] The preparations were finally examined in a Nikon FTX fluorescence microscope equipped with camera, and colour photographs were taken of representative cells.
In another set of experiments, intravital staining for detection of apoptosis/necrosis in keratinocytes cultivated as above in the absence and presence of BR280 (17-phenyl-18,19,20-trinor-PGA2) was performed with propidium-iodide/Hoechst 33342 (bisbenzimide) purchased from Sigma Chemical Company (St. Louis, Mo.). […] The cells were examined in a Nikon FTX fluorescence microscope equipped with a UV-2A filter and camera. […]

[5] = tested on: human keratinocytes; assay: Intravital staining with propidium-iodide/Hoechst 33342 for apoptosis/necrosis; type: cell-based; settings: keratinocytes exposed for 7 days
Experimental: In another set of experiments, intravital staining for detection of apoptosis/necrosis in keratinocytes cultivated as above in the absence and presence of BR280 (17-phenyl-18,19,20-trinor-PGA2) was performed with propidium-iodide/Hoechst 33342 (bisbenzimide) purchased from Sigma Chemical Company (St. Louis, Mo.). A mixture of propidium-iodide (10 μg/ml) and Hoechst 33342 (5 μg/ml) was added to the culture medium. The cells were incubated in the medium for 10 min at 37° C. The medium was harvested for free floating cells while the attached cells were washed once with Ca^++/Mg^++ free Hanks solution (Sigma Chemical Company), or PBS. Thereafter 1.5 ml of a 0.5% trypsin/EDTA solution (Ca^++/Mg^++ free Hanks solution, or PBS) was added and incubation was carried out for 5 min at 37° C. The solution was then centrifuged for 1 min (500 g). The pellet was resuspended in 0.5 ml PBS, and the solution was centrifuged as above. The pellet was then suspended in 20 μl PBS, and the solution containing the cells was placed on a microscopic slide with cover slip. The cells were examined in a Nikon FTX fluorescence microscope equipped with a UV-2A filter and camera. Colour photographs were taken of representative cells. The prostaglandin analogue (BR280) was diluted directly in the culture medium. […]

[6] = Dose 2 (84 μg/ml; JB991 acid 96 μg/ml), 0 min
[7] = Dose 2 (84 μg/ml; JB991 acid 96 μg/ml), 15 min
[8] = Dose 2 (84 μg/ml; JB991 acid 96 μg/ml), 30 min
[9] = Dose 2 (84 μg/ml; JB991 acid 96 μg/ml), 60 min
[10] = Dose 2 (84 μg/ml; JB991 acid 96 μg/ml), 120 min

With O=C(O)CCC/C=C\CC1C(=O)C=CC1/C=C/C(O)COc1cccc(C(F)(F)F)c1 (stereo not drawn) [BR277, 16-phenoxy-(3-trifluormethyl)-17,18,19,20-tetranor-PGA2] the “antiproliferative potency relative to PGA2 and the other analogues” value [1] was “next most potent of the PGA2 analogues”.

In the case of O=C(O)CCC/C=C\CC1C(=O)C=CC1CCC(O)CCc1ccccc1 (stereo not drawn) [BR278, 13,14-dihydro-17-phenyl-18,19,20-trinor-PGA2], the “antiproliferative potency relative to PGA2 and the other analogues” value [1] is reported as “lowest potency”.

In the case of O=C(O)CCC/C=C\CC1C(=O)C=CC1CCC(O)CCc1ccccc1 (stereo not drawn), the “hyperemia in the eye” value [2] is given as “caused some hyperemia in the eye”.

With CCCCC[C@H](O)/C=C/[C@H]1C=CC(=O)[C@@H]1C/C=C\CCCC(=O)O [PGA2, prostaglandin A2] the complete cell death ([1]; highest concentration tested) was “Neither PGA2 nor any of the analogues tested were able to cause complete cell death”, the “Difference in irritation PGA2 - JB991 acid” value (“Difference in irritation PGA2” for short) ([3]; Dose 1 (26 μg/ml), 0 min) was 0.00 ± 0.00 and the “Difference in hyperemia PGA2 - JB991 acid” value (from here on “Difference in hyperemia PGA2”) ([3]; Dose 1 (26 μg/ml), 0 min) was 0.00 ± 0.00. The “Difference in irritation PGA2” value ([3]; Dose 1 (26 μg/ml), 15 min) was 1.00 ± 0.29, the “Difference in hyperemia PGA2” value ([3]; Dose 1 (26 μg/ml), 15 min) was 1.33 ± 0.60 and the “Difference in irritation PGA2” value ([3]; Dose 1 (26 μg/ml), 30 min) was 1.17 ± 0.33. For the same compound, the “Difference in hyperemia PGA2” value ([3]; Dose 1 (26 μg/ml), 30 min) was 1.17 ± 0.44, the “Difference in irritation PGA2” value ([3]; Dose 1 (26 μg/ml), 60 min) was 0.50 ± 0.29 and the “Difference in hyperemia PGA2” value ([3]; Dose 1 (26 μg/ml), 60 min) was 0.67 ± 0.44. The “Difference in irritation PGA2” value ([3]; Dose 1 (26 μg/ml), 120 min) was 0.17 ± 0.17, the “Difference in hyperemia PGA2” value ([3]; Dose 1 (26 μg/ml), 120 min) was 0.17 ± 0.17 and the “Difference in irritation PGA2” value [3, 6] was 0.00 ± 0.00. For the same compound, the “Difference in hyperemia PGA2” value [3, 6] was 0.00 ± 0.00, the “Difference in irritation PGA2” value [3, 7] was 1.83 ± 0.44 *) and the “Difference in hyperemia PGA2” value [3, 7] was 2.17 ± 0.44 **). For the same compound, the “Difference in irritation PGA2” value [3, 8] was 1.33 ± 0.60, the “Difference in hyperemia PGA2” value [3, 8] was 2.17 ± 0.44 **) and the “Difference in irritation PGA2” value [3, 9] was 0.83 ± 0.44. For the same compound, the “Difference in hyperemia PGA2” value [3, 9] was 1.33 ± 0.60, the “Difference in irritation PGA2” value [3, 10] was 0.33 ± 0.17 and the “Difference in hyperemia PGA2” value [3, 10] was 0.50 ± 0.29. For the same compound, the “hyperemia and ocular irritation or pain after application (in words)” value [3] was “causes both these disadvantageous side-effects”.

With O=C(O)CCC/C=C\CC1C(=O)C=CC1/C=C/C(O)CCc1ccccc1 (stereo not drawn) [BR280, 17-phenyl-18,19,20-trinor-PGA2] the “BAX gene expression (BAX-protein) immunostaining” value ([4]; human keratinocytes exposed at different concentrations, 2 days incubation) was “could be demonstrated”, the “BAX gene expression effect at low concentrations” value ([4]; lower concentrations than 10^−5 M) was “weak or absent” and the “signs of apoptosis by intravital staining” value [5] was “Markedly condensed and fragmented nuclei and apoptotic bodies could be demonstrated”. The “antiproliferative potency relative to PGA2 and the other analogues” value [1] was “even more potent than PGA2” and the “hyperemia and ocular irritation or pain after application (in words)” value [3] was “no hyperemic effect or irritative effect whatsoever”.
